Measured values from patent US20040039199A1, “Oxabispidine compound useful in the treatment of cardiac arrhythmias” (priority 2000, published 2004).

Tested on: Anaesthetised Guinea Pigs
Assay: Test A: Primary electrophysiological effects in anaesthetised guinea pigs
Type: in vivo, guinea pig
Details: index of class III electrophysiological potency; MAP duration at 75 percent repolarization during pacing; intravenous infusion, cumulative doses; derived from mean dose-response curve
Method: Primary Electrophysiological Effects In Anaesthetised Guinea Pigs
Guinea pigs weighing between 660 and 1100 g were used. The animals were housed for at least one week before the experiment and had free access to food and tap water during that period.
Anaesthesia was induced by an intraperitoneal injection of pentobarbital (40 to 50 mg/kg) and catheters were introduced into one carotid artery (for blood pressure recording and blood sampling) and into one jugular vein (for drug infusions). Needle electrodes were placed on the limbs for recording of ECGs (lead II). A thermistor was placed in the rectum and the animal was placed on a heating pad, set to a rectal temperature of between 37.5 and 38.5° C. […]
The left ventricular epicardium was exposed by a left-sided thoracotomy, and a custom-designed suction electrode for recording of the monophasic action potential (MAP) was applied to the left ventricular free wall. The electrode was kept in position as long as an acceptable signal could be recorded, otherwise it was moved to a new position. […]
The blood pressure, the MAP signal and the lead II ECG were recorded on a Mingograph ink-jet recorder (Siemens-Elema, Sweden). […] The signals were processed using a custom-made program developed for acquisition and analysis of physiological signals measured in experimental animals (see Axenborg and Hirsch, Comput. Methods Programs Biomed. 41, 55 (1993)). […]

## CC(C)(C)C(=O)CN1CC2CN(CCCNc3ccc(C#N)cc3)CC(C1)O2.O=S(=O)(O)c1ccccc1 [Compound A, 4-({3-[7-(3,3-dimethyl-2-oxobutyl)-9-oxa-3,7-diazabicyclo[3.3.1]non-3-yl]propyl}amino)benzonitrile, benzenesulfonic acid salt]
  D10 (cumulative dose prolonging the MAP duration by 10% from the baseline): 6.7
